In patent publication US20260374754A1, “N-((ISOQUINOLIN-6-YL)METHYL)-1H-PYRAZOLE-4-CARBOXAMIDE DERIVATIVES AS PLASMA KALLIKREIN INHIBITORS FOR THE TREATMENT OF HEREDITARY ANGIODEMA” (Takeda Pharmaceutical Company Limited, priority 2022, published 2026):
Where a name gives a salt, the structure may show the parent alone.

What was measured:
[1] = biological target: human activated kallikrein enzyme (Homo sapiens, UniProt P03952); assay: Inhibition of human activated plasma kallikrein, fluorogenic PFR-AMC substrate, 500 pM enzyme format; assay type: biochemical; conditions: 500 pM activated kallikrein; 300 μM PFR-AMC; 30 min preincubation; 10 min room temperature; pH 7.5; read-out: Primary Dose Response Assay: Average EC50
Chain of human activated kallikrein enzyme (P03952 391-638 limits assumed): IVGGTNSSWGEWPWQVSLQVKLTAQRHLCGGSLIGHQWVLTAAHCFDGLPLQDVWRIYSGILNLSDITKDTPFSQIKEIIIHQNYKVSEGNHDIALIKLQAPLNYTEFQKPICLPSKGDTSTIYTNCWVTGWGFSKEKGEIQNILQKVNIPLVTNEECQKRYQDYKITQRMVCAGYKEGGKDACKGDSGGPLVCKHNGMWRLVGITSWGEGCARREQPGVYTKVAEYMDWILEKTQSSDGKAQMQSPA
Chain of human activated kallikrein enzyme (P03952 20-390 partner limits assumed): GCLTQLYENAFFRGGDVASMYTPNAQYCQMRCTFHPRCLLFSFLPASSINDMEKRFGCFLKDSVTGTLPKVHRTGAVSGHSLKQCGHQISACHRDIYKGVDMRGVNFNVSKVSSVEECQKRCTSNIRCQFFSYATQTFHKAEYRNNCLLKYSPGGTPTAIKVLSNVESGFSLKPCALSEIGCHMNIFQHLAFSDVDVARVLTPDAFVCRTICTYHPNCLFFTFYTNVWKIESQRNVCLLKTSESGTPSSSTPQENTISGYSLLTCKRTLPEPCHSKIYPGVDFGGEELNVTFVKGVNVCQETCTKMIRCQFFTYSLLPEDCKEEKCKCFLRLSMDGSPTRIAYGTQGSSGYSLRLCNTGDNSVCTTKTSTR
Procedure, shortened: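 500 pM activated kallikrein preincubated 30 min at room temperature with inhibitors in pH 7.5 Tris/EDTA/NaCl buffer with PEG-400 and Triton X-100. Reaction started with 300 μM PFR-AMC, run 10 min at room temperature; AMC fluorescence read at ex 380/em 460 nm.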

[2] = biological target: T1, plasma kallikrein (Homo sapiens, UniProt P03952); assay: Neat Human Plasma Assay (Fluorogenic Peptide), contact pathway-activated (FXIIa) plasma; assay type: biochemical; conditions: human citrated plasma 78% final; 10 nM human FXIIa; PFR-AMC substrate; 5 minutes; room temperature
T1 construct: PFR-AMC substrate
T1 sequence (P03952 20-638): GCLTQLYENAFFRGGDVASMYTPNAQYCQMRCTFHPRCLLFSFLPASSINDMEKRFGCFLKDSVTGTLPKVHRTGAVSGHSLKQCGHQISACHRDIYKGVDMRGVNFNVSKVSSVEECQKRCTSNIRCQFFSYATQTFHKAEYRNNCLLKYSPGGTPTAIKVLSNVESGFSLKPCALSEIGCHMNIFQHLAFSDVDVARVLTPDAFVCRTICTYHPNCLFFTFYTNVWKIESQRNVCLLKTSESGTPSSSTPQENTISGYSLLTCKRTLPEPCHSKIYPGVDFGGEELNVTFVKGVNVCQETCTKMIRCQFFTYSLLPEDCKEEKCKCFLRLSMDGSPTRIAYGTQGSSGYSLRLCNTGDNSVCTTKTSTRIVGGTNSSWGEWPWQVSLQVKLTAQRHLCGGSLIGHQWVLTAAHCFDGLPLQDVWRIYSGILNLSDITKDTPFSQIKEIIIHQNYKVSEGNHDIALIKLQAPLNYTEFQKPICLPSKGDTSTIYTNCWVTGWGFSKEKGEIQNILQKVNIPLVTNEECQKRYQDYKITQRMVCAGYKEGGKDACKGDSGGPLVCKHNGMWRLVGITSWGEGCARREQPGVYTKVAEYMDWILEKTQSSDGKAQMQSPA
Method: To analyze inhibition of plasma kallikrein in an ex vivo setting, the potency of compounds was measure in contact pathway-activated plasma assays. In a fluorogenic peptide substrate assay, test compounds dissolved in DMSO were added to sodium citrate collected human or rat plasma in a 96-well microplate. Alternatively, citrated plasma was collected from rats administered the compounds orally or by IV. 10 nM of human FXIIa (Enzyme Research Laboratories) diluted in PKa buffer (20 mM Tris-HCl, pH 7.5, 150 mM NaCl, 1 mM EDTA, 0.1% PEG-8000, and 0.1% Triton X-100) was added to the plasma, followed by the […] of the profluorescent, synthetic plasma kallikrein substrate PFR-AMC (also diluted in PKa buffer). Final plasma concentration in the reaction was 78%. Fluorescence was immediately monitored by excitation/emission wavelengths of 360 nm/480 nm respectively over a period of 5 minutes in a microplate reader. The resulting linear increase in fluorescence emission (reflecting PKa proteolysis of PFR-AMC substrate) was fit to extract a proteolytic rate (fluorescent units over time), and this rate was subsequently plotted against compound inhibitor concentration. Resulting plots were fit to a standard 4-parameter IC50/IC90 equation to determine min/max values, IC50/90, and slope. All experimental steps were performed at room temperature.

Row | SMILES | EC50 [1] | IC90 [2]
1 | Cc1cc2c(N)nccc2c(C)c1CNc1cc(OCc2cn3cc(C4CC4)cc(C4(O)COC4)c3n2)ncn1 [Example 250, 3-(2-(((6-(((1-amino-5,7-dimethylisoquinolin-6-yl)methyl)amino)pyrimidin-4-yl)oxy)methyl)-6-cyclopropylimidazo[1,2-a]pyridin-8-yl)oxetan-3-ol] | < 1 nM | ≤ 1000 nM
2 | Cc1cc2c(N)nccc2c(C)c1CNc1cc(OCc2ccc(Cn3cccn3)cc2)ncn1 [Example 251, 6-(((6-((4-((1H-pyrazol-1-yl)methyl)benzyl)oxy)pyrimidin-4-yl)amino)methyl)-5,7-dimethylisoquinolin-1-amine] | < 1 nM | > 5000 nM
3 | Cc1cc2c(N)nccc2c(C)c1CNc1cc(OCc2cc3cc(C4CC4)cc(N4CCOC4=O)n3n2)ncn1 [Example 256, 3-(2-(((6-(((1-amino-5,7-dimethylisoquinolin-6-yl)methyl)amino)pyrimidin-4-yl)oxy)methyl)-5-cyclopropylpyrazolo[1,5-a]pyridin-7-yl)oxazolidin-2-one] | < 1 nM | ≤ 1000 nM
4 | Cc1cc2c(N)nccc2c(C)c1CNc1cc(OCc2cn3cc(C4CC4)cc(C#N)c3n2)ncn1 [Example 258, 2-(((6-(((1-amino-5,7-dimethylisoquinolin-6-yl)methyl)amino)pyrimidin-4-yl)oxy)methyl)-6-cyclopropylimidazo[1,2-a]pyridine-8-carbonitrile] | < 1 nM | > 5000 nM
5 | Cc1cc2c(N)nccc2c(C)c1CNc1cc(OCc2cn3cc(C4CC4)cc(N4CCCC4=O)c3n2)ncn1 [Example 259, 1-(2-(((6-(((1-amino-5,7-dimethylisoquinolin-6-yl)methyl)amino)pyrimidin-4-yl)oxy)methyl)-6-cyclopropylimidazo[1,2-a]pyridin-8-yl)pyrrolidin-2-one] | < 1 nM | ≤ 1000 nM
6 | Cc1cc2c(N)nccc2c(C)c1CNc1cc(OCc2cn3nc(C4CC4)ccc3n2)ncn1 [Example 261, 6-(((6-((6-cyclopropylimidazo[1,2-b]pyridazin-2-yl)methoxy)pyrimidin-4-yl)amino)methyl)-5,7-dimethylisoquinolin-1-amine] | < 1 nM | 1000 to 5000 nM
7 | Cc1cc2c(N)nccc2c(C)c1CNc1cc(OCc2cn3cc(C4CC4)cnc3n2)ncn1 [Example 262, 6-(((6-((6-cyclopropylimidazo[1,2-a]pyrimidin-2-yl)methoxy)pyrimidin-4-yl)amino)methyl)-5,7-dimethylisoquinolin-1-amine] | < 1 nM | ≤ 1000 nM
8 | Cc1cc2c(N)nccc2c(C)c1CNc1nccc2cn(Cc3cn4nc(C5CC5)ccc4n3)nc12 [Example 265, 6-(((2-((6-cyclopropylimidazo[1,2-b]pyridazin-2-yl)methyl)-2H-pyrazolo[3,4-c]pyridin-7-yl)amino)methyl)-5,7-dimethylisoquinolin-1-amine] | < 1 nM | ≤ 1000 nM
9 | Cc1cc2c(N)nccc2c(C)c1CNc1nccc2nn(Cc3cn4cc(C5CC5)ccc4n3)cc12 [Example 267, 6-(((2-((6-cyclopropylimidazo[1,2-a]pyridin-2-yl)methyl)-2H-pyrazolo[4,3-c]pyridin-4-yl)amino)methyl)-5,7-dimethylisoquinolin-1-amine] | < 1 nM | ≤ 1000 nM
10 | Cc1cc2c(N)nccc2c(C)c1CNc1cc2c(cn1)cnn2Cc1cn2cc(C3CC3)ccc2n1 [Example 268, 6-(((1-((6-cyclopropylimidazo[1,2-a]pyridin-2-yl)methyl)-1H-pyrazolo[4,3-c]pyridin-6-yl)amino)methyl)-5,7-dimethylisoquinolin-1-amine] | < 1 nM | ≤ 1000 nM
11 | Cc1cc2c(N)nccc2c(C)c1CNc1cc(OCc2cn3cc(C4CC4)cc(C4(F)COC4)c3n2)ncn1 [Example 272, 6-(((6-((6-cyclopropyl-8-(3-fluorooxetan-3-yl)imidazo[1,2-a]pyridin-2-yl)methoxy)pyrimidin-4-yl)amino)methyl)-5,7-dimethylisoquinolin-1-amine] | < 1 nM | 1000 to 5000 nM
12 | Cc1cc2c(N)nccc2c(C)c1CNc1cc(OCc2cc3cc(C4CC4)cc(CCC(=O)O)n3n2)ncn1 [Example 273, 3-(2-(((6-(((1-amino-5,7-dimethylisoquinolin-6-yl)methyl)amino)pyrimidin-4-yl)oxy)methyl)-5-cyclopropylpyrazolo[1,5-a]pyridin-7-yl)propanoic acid] | < 1 nM | > 5000 nM
13 | Cc1cc2c(N)nccc2c(C)c1CNc1cc(OCc2cn3cc(C4CC4)ccc3n2)c(Cl)cn1 [Example 280, 6-(((5-chloro-4-((6-cyclopropylimidazo[1,2-a]pyridin-2-yl)methoxy)pyridin-2-yl)amino)methyl)-5,7-dimethylisoquinolin-1-amine] | 1 to 10 nM | > 5000 nM
14 | Cc1cc2c(N)nccc2c(C)c1CNc1cc(OCc2cc3cc(C4CC4)cnc3s2)ncn1 [Example 281, 6-(((6-((5-cyclopropylthieno[2,3-b]pyridin-2-yl)methoxy)pyrimidin-4-yl)amino)methyl)-5,7-dimethylisoquinolin-1-amine] | 1 to 10 nM | > 5000 nM

Now from value to compound:

Row | EC50 [1] | IC90 [2] | SMILES
15 | 1 to 10 nM | 1000 to 5000 nM | Cc1cc2c(N)nccc2c(C)c1CNc1cc2c(ccn2Cc2cc3cc(C4CC4)cnc3s2)cn1 [Example 283, 6-(((1-((5-cyclopropylthieno[2,3-b]pyridin-2-yl)methyl)-1H-pyrrolo[3,2-c]pyridin-6-yl)amino)methyl)-5,7-dimethylisoquinolin-1-amine]
16 | < 1 nM | > 5000 nM | Cc1cc2c(N)nccc2c(C)c1CNc1cc(OCc2cn3cc(C4CC4)ccc3n2)ccn1 [Example 284, 6-(((4-((6-cyclopropylimidazo[1,2-a]pyridin-2-yl)methoxy)pyridin-2-yl)amino)methyl)-5,7-dimethylisoquinolin-1-amine]
17 | 1 to 10 nM | 1000 to 5000 nM | Cc1cc2c(N)nccc2c(C)c1CNc1cc2c(cn1)c(F)cn2Cc1cn2cc(C3CC3)ccc2n1 [Example 285, 6-(((1-((6-cyclopropylimidazo[1,2-a]pyridin-2-yl)methyl)-3-fluoro-1H-pyrrolo[3,2-c]pyridin-6-yl)amino)methyl)-5,7-dimethylisoquinolin-1-amine]
18 | 1 to 10 nM | > 5000 nM | Cc1cc2c(N)nccc2c(C)c1CNc1ncncc1NCc1cn2cc(C3CC3)ccc2n1 [Example 288, N4-((1-amino-5,7-dimethylisoquinolin-6-yl)methyl)-N5-((6-cyclopropylimidazo[1,2-a]pyridin-2-yl)methyl)pyrimidine-4,5-diamine]
19 | < 1 nM | 1000 to 5000 nM | Cc1cc2c(N)nccc2c(C)c1CNc1cc(SCc2cn3cc(C4CC4)ccc3n2)ncn1 [Example 290, 6-(((6-(((6-cyclopropylimidazo[1,2-a]pyridin-2-yl)methyl)thio)pyrimidin-4-yl)amino)methyl)-5,7-dimethylisoquinolin-1-amine]
20 | < 1 nM | > 5000 nM | Cc1cc2c(N)nccc2c(C)c1CNc1cc(OCc2cn3cc(C4CC4)ccc3n2)ncn1 [Example 305, 6-(((6-((6-cyclopropylimidazo[1,2-a]pyridin-2-yl)methoxy)pyrimidin-4-yl)amino)methyl)-5,7-dimethylisoquinolin-1-amine]
21 | < 1 nM | > 5000 nM | Cc1cc2c(N)nccc2c(C)c1CNc1cc(NCc2cn3cc(Cl)ccc3n2)ncn1 [Example 313, N^4-((1-amino-5,7-dimethylisoquinolin-6-yl)methyl)-N^6-((6-chloroimidazo[1,2-a]pyridin-2-yl)methyl)pyrimidine-4,6-diamine, formic acid salt]
22 | < 1 nM | 1000 to 5000 nM | Cc1cc2c(N)nccc2c(C)c1CNc1cc(NCc2ccc3ncc(C4CC4)cc3c2)ncn1 [Example 314, N^4-((1-amino-5,7-dimethylisoquinolin-6-yl)methyl)-N^6-((3-cyclopropylquinolin-6-yl)methyl)pyrimidine-4,6-diamine]
23 | < 1 nM | 1000 to 5000 nM | Cc1cc2c(N)nccc2c(C)c1CNc1cc(NCc2cn3cc(C4CC4)ccc3n2)ncn1 [Example 331, N^4-((1-amino-5,7-dimethylisoquinolin-6-yl)methyl)-N^6-((6-cyclopropylimidazo[1,2-a]pyridin-2-yl)methyl)pyrimidine-4,6-diamine]
24 | < 1 nM | > 5000 nM | Cc1cc2c(N)nccc2c(C)c1CNc1cc(NCc2ccc(Cn3cccn3)cc2)ncn1 [Example 340, N^4-(4-((1H-pyrazol-1-yl)methyl)benzyl)-N^6-((1-amino-5,7-dimethylisoquinolin-6-yl)methyl)pyrimidine-4,6-diamine]
25 | 1 to 10 nM | 1000 to 5000 nM | Cc1ccc2cc(COc3cc(NCc4c(C)cc5c(N)nccc5c4C)ncn3)ccc2n1 [Example 371, 5,7-dimethyl-6-(((6-((2-methylquinolin-6-yl)methoxy)pyrimidin-4-yl)amino)methyl)isoquinolin-1-amine]
